Assay results taken from ChEMBL document CHEMBL1201862, “PubChem BioAssay data set” (2004).
Active and inactive are the calls of the source.

Tests used:
[1] = target: T1, Heat shock factor protein 1 (Mus musculus, UniProt P38532); test: enhancement of HSF1-driven luciferase signal – cell-based, NIH3T3, luminescence, dose retest, confirmation (AID 435004); format: functional;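 further: stress induced by proteasome inhibitor MG132 added 30 min after compound; luciferase reporter driven by HSF1 response element in NIH3T3 cells; actives raise luminescence as potentiators of the MG132 stress response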
T1 sequence (P38532 whole entry): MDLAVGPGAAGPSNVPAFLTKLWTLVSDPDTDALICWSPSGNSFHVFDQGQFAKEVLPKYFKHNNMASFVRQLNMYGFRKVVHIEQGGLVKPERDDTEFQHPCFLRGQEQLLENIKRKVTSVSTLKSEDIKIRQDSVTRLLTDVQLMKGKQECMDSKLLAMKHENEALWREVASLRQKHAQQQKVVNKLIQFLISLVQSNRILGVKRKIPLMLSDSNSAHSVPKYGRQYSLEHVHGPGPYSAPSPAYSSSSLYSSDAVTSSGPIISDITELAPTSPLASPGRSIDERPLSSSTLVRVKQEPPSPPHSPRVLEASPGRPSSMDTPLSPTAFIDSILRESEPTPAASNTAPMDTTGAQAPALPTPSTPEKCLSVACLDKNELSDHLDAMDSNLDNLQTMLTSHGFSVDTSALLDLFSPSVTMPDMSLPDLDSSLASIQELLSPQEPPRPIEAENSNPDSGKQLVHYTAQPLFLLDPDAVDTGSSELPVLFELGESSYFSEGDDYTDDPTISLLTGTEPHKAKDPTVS

[2] = viability of uninfected HEp-2 cells – cell-based, HTS, cytotoxicity control for RSV inhibitor project, dose response (AID 2410); format: functional; conditions: human respiratory syncytial virus
Streptokinase A = target: T2, Streptokinase A (Streptococcus pyogenes serotype M1, UniProt P10520); test: viability-normalized secreted streptokinase activity reduction – plasminogen activation absorbance, OD405, dose response (AID 1914); format: functional, Streptococcus pyogenes M1 GAS;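 further: secreted streptokinase activity via plasminogen activation per viability signal from cell pellet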
T2 sequence (P10520 whole entry): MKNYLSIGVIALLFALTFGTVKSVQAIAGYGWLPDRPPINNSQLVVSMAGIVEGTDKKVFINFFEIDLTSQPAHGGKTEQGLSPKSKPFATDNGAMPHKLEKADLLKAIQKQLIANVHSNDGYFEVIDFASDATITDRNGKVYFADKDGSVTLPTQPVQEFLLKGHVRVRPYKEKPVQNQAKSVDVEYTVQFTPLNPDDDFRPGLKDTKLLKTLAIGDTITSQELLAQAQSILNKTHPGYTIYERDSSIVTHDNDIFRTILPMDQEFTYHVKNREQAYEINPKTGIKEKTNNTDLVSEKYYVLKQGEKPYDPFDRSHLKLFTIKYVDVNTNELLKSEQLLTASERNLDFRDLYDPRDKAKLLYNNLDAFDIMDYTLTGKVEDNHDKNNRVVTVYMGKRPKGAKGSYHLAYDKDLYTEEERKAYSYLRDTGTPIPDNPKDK

Streptococcus = test: GAS UMAA2166 growth inhibition – luminescence, BacTiterGlo, counter-screen for streptokinase expression inhibitor project, dose response (AID 1915); format: functional, organism-based;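 further: potency for reduction of bacterial viability or growth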
[3] = system: Streptococcus sp. 'group A'; test: Streptococcus pyogenes SK(-)GAS viability under kanamycin – luminescence, BacTiterGlo, confirmation, counter-screen for streptokinase expression inhibitor project, dose response (AID 1900); format: functional, organism-based
Cytochrome P450 1A2 = target: T3, Cytochrome P450 1A2 (Homo sapiens, UniProt P05177);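 further: PubChem cytochrome P450 panel assay, CYP1A2 panel member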
T3 sequence (P05177 whole entry): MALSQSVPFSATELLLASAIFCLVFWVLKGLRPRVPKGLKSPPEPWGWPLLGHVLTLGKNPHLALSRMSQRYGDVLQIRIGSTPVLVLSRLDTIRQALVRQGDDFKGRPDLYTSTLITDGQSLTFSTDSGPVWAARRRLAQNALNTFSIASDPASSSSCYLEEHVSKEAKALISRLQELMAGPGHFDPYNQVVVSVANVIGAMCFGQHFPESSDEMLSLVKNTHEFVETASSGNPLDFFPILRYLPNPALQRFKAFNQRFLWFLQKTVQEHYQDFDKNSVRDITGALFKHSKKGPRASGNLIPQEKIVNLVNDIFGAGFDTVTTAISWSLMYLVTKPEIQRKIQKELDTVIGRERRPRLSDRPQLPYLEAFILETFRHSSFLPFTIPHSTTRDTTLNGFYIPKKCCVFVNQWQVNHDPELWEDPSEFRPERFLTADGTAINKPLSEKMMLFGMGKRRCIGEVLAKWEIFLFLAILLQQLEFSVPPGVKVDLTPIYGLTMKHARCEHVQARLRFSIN

[4] = NIH-3T3 fibroblast cytotoxicity, dose response, cytotoxicity control, cell-based, fluorescence, Alamar Blue, secondary assay (AID 2327); format: functional;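 further: NIH-3T3 mouse fibroblasts cultured with fluconazole at 8 µg/mL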
[5] = target: T4, Rac GTPase-activating protein 1 (Homo sapiens, UniProt Q9H0H5); test: blockers of MgcRacGAP-driven Rac1 GTP hydrolysis – biochemical, ADP Hunter fluorescence, primary and confirmatory, confirmation (AID 624330); format: functional
T4 sequence (Q9H0H5 whole entry): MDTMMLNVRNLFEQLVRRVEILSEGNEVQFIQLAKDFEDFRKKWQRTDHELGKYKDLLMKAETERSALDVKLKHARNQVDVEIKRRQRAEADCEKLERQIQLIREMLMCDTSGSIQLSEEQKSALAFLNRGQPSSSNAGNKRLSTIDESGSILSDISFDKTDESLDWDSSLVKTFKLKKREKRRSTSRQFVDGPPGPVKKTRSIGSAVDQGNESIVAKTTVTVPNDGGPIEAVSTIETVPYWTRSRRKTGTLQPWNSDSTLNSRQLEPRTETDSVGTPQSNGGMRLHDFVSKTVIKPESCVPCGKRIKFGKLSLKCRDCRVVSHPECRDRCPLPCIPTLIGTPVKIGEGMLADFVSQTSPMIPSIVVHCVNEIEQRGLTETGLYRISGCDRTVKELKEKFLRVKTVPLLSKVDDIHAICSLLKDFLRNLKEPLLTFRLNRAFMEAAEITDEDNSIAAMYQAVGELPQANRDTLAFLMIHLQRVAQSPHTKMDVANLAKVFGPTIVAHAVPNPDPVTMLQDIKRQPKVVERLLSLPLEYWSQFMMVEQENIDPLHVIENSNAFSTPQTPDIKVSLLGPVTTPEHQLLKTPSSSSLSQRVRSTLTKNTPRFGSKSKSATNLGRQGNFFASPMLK

[6] = target: T5, Corticotropin-releasing factor receptor 2/Corticotropin-releasing factor-binding protein (Homo sapiens, UniProt P24387+Q13324); test: activators of CRF receptor 2 with binding protein – uHTS hits, confirmation (AID 602473); format: functional; conditions: read-out: EC50_Mean
T5 sequence (Q13324 whole entry): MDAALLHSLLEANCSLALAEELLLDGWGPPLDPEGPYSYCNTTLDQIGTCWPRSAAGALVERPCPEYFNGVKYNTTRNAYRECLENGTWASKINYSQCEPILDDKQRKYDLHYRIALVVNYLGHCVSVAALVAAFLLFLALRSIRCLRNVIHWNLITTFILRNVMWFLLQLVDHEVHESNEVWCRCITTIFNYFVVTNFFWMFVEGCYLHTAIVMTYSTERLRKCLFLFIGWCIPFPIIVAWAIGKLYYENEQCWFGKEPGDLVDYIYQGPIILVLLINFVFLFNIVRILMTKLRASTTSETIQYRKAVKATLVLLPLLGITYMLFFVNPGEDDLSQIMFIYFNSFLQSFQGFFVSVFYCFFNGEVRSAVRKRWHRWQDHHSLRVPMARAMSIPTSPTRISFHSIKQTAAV
T5 sequence (P24387 whole entry): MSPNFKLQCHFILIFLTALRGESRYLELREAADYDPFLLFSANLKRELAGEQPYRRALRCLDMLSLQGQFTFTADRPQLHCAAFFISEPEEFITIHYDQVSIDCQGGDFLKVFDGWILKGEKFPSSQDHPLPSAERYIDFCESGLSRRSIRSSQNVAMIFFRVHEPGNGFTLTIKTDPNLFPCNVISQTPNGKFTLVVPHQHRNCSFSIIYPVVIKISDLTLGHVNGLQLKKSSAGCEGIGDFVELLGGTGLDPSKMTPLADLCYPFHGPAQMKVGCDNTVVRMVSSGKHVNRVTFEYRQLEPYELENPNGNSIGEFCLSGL

[7] = target: T5, Corticotropin-releasing factor receptor 2/Corticotropin-releasing factor-binding protein; test: Dose Response confirmation of uHTS hits for small molecule antagonists of the CRF-binding protein and CRF-R2 receptor complex.; format: functional; conditions: read-out: IC50_Mean
[8] = P. falciparum Dd2 growth inhibitors, dose response, SYBR Green, cherry-picked samples (AID 1159567); format: functional, cell-based

Cc1ccc(-c2cnc3cc(C)nn3c2)cc1
EC50 [1]: > 260 µM (inactive)

CCn1cc(C2=NC(c3ccccc3)CO2)c2ccccc21 (centres undefined)
CC50 [2]: 14.8 µM (active)

Cc1cccc(NC(=O)c2[nH]cnc2C(=O)N[C@@H](Cc2ccccc2)C(=O)OCc2ccccc2)c1
CC50 [2]: 46.3 µM (active)

Cc1cccc(NC(=O)CCc2c(C)nn(-c3ccc(N4CCCCC4)nn3)c2C)c1
EC50 [1]: > 260 µM (inactive)

CCC1C(=NO)C(CC)C(c2ccccc2)NC1c1ccccc1 (centres undefined)
EC50 (Streptokinase A): 13.3 µM (active) | EC50 [1]: > 260 µM (inactive) | EC50 (Streptococcus): 11.8 µM (active) | EC50 [3]: 4.07 µM (active)

Cc1ccc(C)c(-c2cc(C(=O)Nc3sc(C)c(C)c3C(N)=O)c3ccccc3n2)c1
EC50 (Streptokinase A): 4.64 µM (active) | AC50 (Cytochrome P450 1A2): 3.16 µM (inconclusive) | CC50 [2]: 9.97 µM (active) | EC50 (Streptococcus): > 150 µM (not active) | EC50 [3]: 2.81 µM (active)

Cc1ccc2c(c1)/C(=C/c1ccc(F)cc1)C(=O)N2
EC50 [1]: > 260 µM (inactive)

Cc1ccc(Cn2nnc3c(O)nc(C4CCN(S(=O)(=O)c5ccc(C)cc5)CC4)nc32)cc1
EC50 [4]: > 150 µM (inactive) | CC50 [2]: 13.6 µM (active)

COC(=O)/C(C#N)=C/c1c(N2CCCCCC2)nc2c(C)cccn2c1=O
EC50 [1]: > 260 µM (inactive)

Cc1ccc(OCC(=O)N2CCN(CC3CC4C=CC3C4)CC2)cc1 (centres undefined)
IC50 [5]: 293 µM (active)

c1ccc(-c2cc(-c3ccc(N4CCOCC4)cc3)nc3ccccc23)cc1
CC50 [2]: > 50 µM (active)

O=C(CCn1c(=O)oc2ccccc21)Nc1ccccc1
EC50 [1]: > 260 µM (inactive)

O=C(c1ccc(N2CCN(C3CC(=O)N(Cc4cccs4)C3=O)CC2)cc1)c1cccnc1 (centres undefined)
CC50 [2]: 24.4 µM (active)

CN(C)CCCn1c(SCc2ccc(Cl)cc2)nnc1-c1ccncc1
IC50 [5]: 121 µM (active)

COc1ccc(NS(=O)(=O)c2ccc(N3CCOCC3)c(NC(=O)C(C)C)c2)cc1
EC50 [6]: > 53 µM (inactive) | IC50 [7]: > 47.1 µM (inactive)

CCOC(=O)c1c(C)[nH]c(C(=O)CN2CCN(CC)CC2)c1C
IC50 [5]: 60.6 µM (active)

CCOc1cc(CNc2ccc3c(c2)OCCO3)cc(Br)c1OCC(N)=O
IC50 [5]: 99.3 µM (active)

Cc1ccccc1C(=O)Nc1ccc(N2CCCC2)cc1
IC50 [5]: 79.7 µM (active)

O=C(NNc1cccc(Cl)n1)Nc1ccc(Cl)cc1
EC50 [1]: > 260 µM (inactive)

CC(c1ccc(F)cc1)n1c(S)nnc1Cn1ncc2ccccc2c1=O (centres undefined)
EC50 [1]: > 260 µM (inactive)

O=[N+]([O-])c1ccc(-c2csc(Nc3ccccc3)[n+]2Cc2ccccc2)cc1
EC50 [1]: 131 µM (active)

Cc1ccccc1[C@@]1(C)ON(c2ccccc2C(F)(F)F)C1=O
CC50 [2]: 21.9 µM (active)

O=C(Nc1ccccn1)c1ccc2ccccc2c1O
IC50 [5]: 73 µM (active)

Cc1ccc(-n2nc3c(=O)n(CCCC(=O)NCCc4ccccc4C)nc(C)c3c2C)cc1
CC50 [2]: > 50 µM (active)

COc1ccccc1C(=O)NCCCNC(=O)c1ccccn1
EC50 [1]: > 260 µM (inactive)

CCOc1ccc(CNC(=O)c2cccc(NC(=O)C3=C(C)OCCS3)c2)cc1
EC50 [1]: > 260 µM (inactive)

CN(C)c1ccc(C=Cc2cnccn2)cc1
IC50 [5]: 38.6 µM (active)

COc1cc(/C=C/C(C)=NNc2ccccc2)ccc1O
IC50 [5]: 51.9 µM (active)

CCOC(=O)N1CCC(/N=c2\c(O)c(O)\c2=N/c2cccc(CC)c2)CC1
CC50 [2]: 39.3 µM (active)

O=C(Cn1cc(C(F)(F)F)ccc1=O)N/N=C/c1ccc(O)cc1
IC50 [5]: 95.1 µM (active)

C[C@H](CCC(=O)O)[C@H]1CC[C@H]2[C@@H]3CC[C@@H]4CC(=O)CC[C@]4(C)[C@H]3CC(=O)[C@]12C
EC50 [1]: > 260 µM (inactive)

COc1cccc(CN2[C@@H](CO)[C@H](c3ccccc3)C23CN(C(=O)C2CCCC2)C3)c1
AC50 [8]: 5.77 µM (active)

CCC(=O)N1CC2(C1)CN(Cc1cccc(Cl)c1)[C@H](CO)c1c2c2ccc(OC)cc2n1C
AC50 [8]: 10.5 µM (active)

CC(C)NC(=O)N1CCCCN2[C@H](CO)[C@@H](c3ccc(C#C[C@H](C)O)cc3)[C@@H]2C1
AC50 [8]: 19.5 µM (active)

CO[C@H]1CN(C)C(=O)c2ccc(NC(=O)c3cccc(Oc4ccccc4)c3)cc2OC[C@@H](C)NC[C@H]1C
AC50 [8]: 7.72 µM (active)

CNC[C@H]1Oc2ncc(-c3ccc(OC)cc3)cc2C(=O)N([C@H](C)CO)C[C@H]1C
AC50 [8]: 7.75 µM (active)

CCC(=O)N1CCC2(CC1)CN(Cc1ccc(Cl)cc1)[C@H](CO)c1[nH]c3cc(OC)ccc3c12
AC50 [8]: 3.07 µM (active)

OC[C@H]1[C@@H](c2ccc(-c3cccnc3)cc2)[C@H]2CN(CC3CC3)CCCCN21
AC50 [8]: 6.52 µM (active)

COc1cccc(CN2[C@@H](CO)[C@H](c3ccccc3)C23CN(C(=O)C2CCOCC2)C3)c1
AC50 [8]: 7.03 µM (active)

COc1ccc2c3c([nH]c2c1)[C@@H](CO)N(Cc1ccccc1Cl)CC31CCN(C(=O)C2CC2)CC1
AC50 [8]: 5.82 µM (active)
